The values that follow come from paper PMC9907135 (Proceedings of the National Academy of Sciences of the …, 2022).

Bridge positions count the residues as written; N and C are the ends. Square brackets hold non-standard residues; d marks the D form. Peptide text beside a SMILES is read from it. R8 = C=CCCCCCC[C@@](C)(N)C(=O)O; S5 = C=CCCC[C@](C)(N)C(=O)O; Nle = CCCC[C@H](N)C(=O)O

For series [1], the system named is Expi293 cells. As to conditions: percentage of Helicons in cells after treatment and wash; Expi293 cells 1x10^6 cells/mL, 22 hours, 37°C; washed twice with DPBS; MS quantitation, single-point calibration; n=2, mean ± SD.
The test system of series [2] is Expi293 cells. As to conditions: luminescence at Tfinal (22 hours) divided by Tinitial, measure of ATP levels, reflective of cell health.

As to `CCCC[C@H](NC(=O)[C@H](Cc1ccc(O)cc1)NC(=O)[C@H](CCC(N)=O)NC(=O)[C@]1(C)CCCC=CCCCCCC[C@@](C)(NC(=O)[C@H](CCC(=O)O)NC(=O)[C@H](CC(C)C)NC(=O)[C@@H](NC(C)=O)[C@@H](C)CC)C(=O)N[C@@H](Cc2ccc(O)cc2)C(=O)N[C@@H](CCC(=O)O)C(=O)N[C@@H](C)C(=O)N[C@@H](C)C(=O)N[C@@H](Cc2ccccc2)C(=O)N[C@@H](CCC(=O)O)C(=O)N1)C(N)=O` [FP08018] (Ac-ILE[R8]YEAAFE[S5]QY[Nle]-NH2; staple 4-11), the “Helicon in cells ± SD (%)” value in series [1] is given as 1.0 ± 0.1%. For the same compound, the “CellTiter-Glo fold change ± SD” value in series [2] was 1.1 ± 0.05.

In the case of `CC[C@H](C)[C@H](NC(C)=O)C(=O)N[C@@H](CC(C)C)C(=O)N[C@@H](CCC(N)=O)C(=O)N[C@]1(C)CCCCCCC=CCCC[C@@](C)(C(=O)N[C@@H](Cc2c[nH]cn2)C(=O)N[C@@H](Cc2ccc(O)cc2)C(=O)N[C@@H](CCC(N)=O)C(N)=O)NC(=O)[C@H](CO)NC(=O)[C@H](Cc2ccccc2)NC(=O)[C@H](C)NC(=O)[C@H](C)NC(=O)[C@H](CCC(=O)O)NC(=O)[C@H](Cc2ccc(O)cc2)NC1=O` [FP07860] (Ac-ILQ[R8]YEAAFS[S5]HYQ-NH2; staple 4-11), in series [1], the “Helicon in cells ± SD (%)” value amounted to 0.3 ± 0.0%. Also, the “CellTiter-Glo fold change ± SD” value in series [2] was found to be 1.2 ± 0.03.

Consider `CCCC[C@H](NC(=O)[C@@H](NC(C)=O)[C@@H](C)CC)C(=O)N[C@@H](C)C(=O)N[C@]1(C)CCCCCCC=CCCC[C@@](C)(C(=O)N[C@@H](CCC(N)=O)C(=O)N[C@@H](Cc2ccc(O)cc2)C(=O)N[C@@H](CC(N)=O)C(N)=O)NC(=O)[C@H](Cc2c[nH]c3ccccc23)NC(=O)[C@H](Cc2ccccc2)NC(=O)[C@H](C)NC(=O)[C@H](C)NC(=O)[C@H](CCC(N)=O)NC(=O)[C@H](Cc2ccc(O)cc2)NC1=O` [FP08023] (Ac-I[Nle]A[R8]YQAAFW[S5]QYN-NH2; staple 4-11), for which, in series [1], the “Helicon in cells ± SD (%)” value was 3.0 ± 0.3%. The “CellTiter-Glo fold change ± SD” value in series [2] was 1.2 ± 0.03.

As for `CCCC[C@H](NC(=O)[C@@H](NC(C)=O)C(C)C)C(=O)N[C@@H](CCC(=O)O)C(=O)N[C@]1(C)CCCCCCC=CCCC[C@@](C)(C(=O)N[C@@H](Cc2c[nH]cn2)C(=O)N[C@@H](Cc2ccc(O)cc2)C(=O)N[C@H](C(N)=O)C(C)C)NC(=O)[C@H]([C@@H](C)CC)NC(=O)[C@H](Cc2ccccc2)NC(=O)[C@H](C)NC(=O)[C@H](C)NC(=O)[C@H](CCC(=O)O)NC(=O)[C@H](Cc2ccc(O)cc2)NC1=O` [FP07855] (Ac-V[Nle]E[R8]YEAAFI[S5]HYV-NH2; staple 4-11), in series [1], the “Helicon in cells ± SD (%)” value was 16.4 ± 0.6%. Also, the “CellTiter-Glo fold change ± SD” value in series [2] was 1.2 ± 0.10.

For `CC[C@H](C)[C@H](NC(=O)[C@H](Cc1ccc(O)cc1)NC(=O)[C@H](CCC(N)=O)NC(=O)[C@]1(C)CCCC=CCCCCCC[C@@](C)(NC(=O)[C@H](Cc2c[nH]cn2)NC(=O)[C@@H](NC(=O)[C@@H](NC(C)=O)[C@@H](C)CC)[C@@H](C)CC)C(=O)N[C@@H](Cc2ccc(O)cc2)C(=O)N[C@@H](CCC(=O)O)C(=O)N[C@@H](C)C(=O)N[C@@H](C)C(=O)N[C@@H](Cc2ccccc2)C(=O)N[C@@H](Cc2ccccc2)C(=O)N1)C(N)=O` [FP08012] (Ac-IIH[R8]YEAAFF[S5]QYI-NH2; staple 4-11), the “Helicon in cells ± SD (%)” value in series [1] is recorded as 5.4 ± 0.9%. Moreover, the “CellTiter-Glo fold change ± SD” value in series [2] came out at 1.1 ± 0.04.

For `CCCC[C@H](NC(=O)[C@@H](NC(C)=O)C(C)C)C(=O)N[C@@H](CCC(N)=O)C(=O)N[C@]1(C)CCCCCCC=CCCC[C@@](C)(C(=O)N[C@@H](Cc2c[nH]cn2)C(=O)N[C@@H](Cc2ccc(O)cc2)C(=O)N[C@H](C(N)=O)C(C)C)NC(=O)[C@H]([C@@H](C)CC)NC(=O)[C@H](Cc2ccccc2)NC(=O)[C@H](C)NC(=O)[C@H](C)NC(=O)[C@H](CCC(=O)O)NC(=O)[C@H](Cc2ccc(O)cc2)NC1=O` [FP07863] (Ac-V[Nle]Q[R8]YEAAFI[S5]HYV-NH2; staple 4-11), the “Helicon in cells ± SD (%)” value in series [1] was 23.5 ± 6.5%. Also, the “CellTiter-Glo fold change ± SD” value in series [2] came to 1.2 ± 0.02.

On to `CCCC[C@H](NC(=O)[C@@H](NC(C)=O)C(C)C)C(=O)N[C@@H](CCC(=O)O)C(=O)N[C@]1(C)CCCCCCC=CCCC[C@@](C)(C(=O)N[C@@H](Cc2c[nH]cn2)C(=O)N[C@@H](Cc2ccc(O)cc2)C(=O)N[C@H](C(N)=O)C(C)C)NC(=O)[C@H]([C@@H](C)CC)NC(=O)[C@H](Cc2ccccc2)NC(=O)[C@H](C)NC(=O)[C@H](C)NC(=O)[C@H](CCC(N)=O)NC(=O)[C@H](Cc2ccc(O)cc2)NC1=O` [FP07868] (Ac-V[Nle]E[R8]YQAAFI[S5]HYV-NH2; staple 4-11), for which the “Helicon in cells ± SD (%)” value in series [1] is given as 10.3 ± 1.4%. Moreover, the “CellTiter-Glo fold change ± SD” value in series [2] was 1.2 ± 0.10.

`CC[C@H](C)[C@H](NC(C)=O)C(=O)N[C@@H](CC(C)C)C(=O)N[C@@H](CCC(N)=O)C(=O)N[C@]1(C)CCCCCCC=CCCC[C@@](C)(C(=O)N[C@@H](Cc2c[nH]cn2)C(=O)N[C@@H](Cc2ccc(O)cc2)C(=O)N[C@@H](CCC(N)=O)C(N)=O)NC(=O)[C@H](CO)NC(=O)[C@H](Cc2ccccc2)NC(=O)[C@H](C)NC(=O)[C@H](C)NC(=O)[C@H](CCC(=O)O)NC(=O)[C@H](Cc2ccc(O)cc2)NC1=O` [FP07859] (Ac-ILQ[R8]YEAAFS[S5]HYQ-NH2; staple 4-11): the “Helicon in cells ± SD (%)” value in series [1] was 0.1 ± 0.0%. Also, the “CellTiter-Glo fold change ± SD” value in series [2] came out at 1.2 ± 0.02.

In the case of `CCCC[C@H](NC(=O)[C@@H](NC(C)=O)C(C)C)C(=O)N[C@@H](CCC(N)=O)C(=O)N[C@]1(C)CCCCCCC=CCCC[C@@](C)(C(=O)N[C@@H](Cc2c[nH]cn2)C(=O)N[C@@H](Cc2ccc(O)cc2)C(=O)N[C@H](C(N)=O)C(C)C)NC(=O)[C@H]([C@@H](C)CC)NC(=O)[C@H](Cc2ccccc2)NC(=O)[C@H](C)NC(=O)[C@H](C)NC(=O)[C@H](CCC(N)=O)NC(=O)[C@H](Cc2ccc(O)cc2)NC1=O` [FP07872] (Ac-V[Nle]Q[R8]YQAAFI[S5]HYV-NH2; staple 4-11), the “Helicon in cells ± SD (%)” value in series [1] was found to be 11.7 ± 1.6%. For the same compound, in series [2], the “CellTiter-Glo fold change ± SD” value is 1.1 ± 0.02.

Consider `CCCC[C@H](NC(=O)[C@@H](NC(C)=O)C(C)C)C(=O)N[C@@H](CCC(=O)O)C(=O)N[C@]1(C)CCCCCCC=CCCC[C@@](C)(C(=O)N[C@@H](Cc2c[nH]cn2)C(=O)N[C@@H](Cc2ccc(O)cc2)C(=O)N[C@H](C(N)=O)C(C)C)NC(=O)[C@H]([C@@H](C)CC)NC(=O)[C@H](Cc2ccccc2)NC(=O)[C@H](C)NC(=O)[C@H](C)NC(=O)[C@H](CCC(=O)O)NC(=O)[C@H](Cc2ccc(O)cc2)NC1=O` [FP07856] (Ac-V[Nle]E[R8]YEAAFI[S5]HYV-NH2; staple 4-11), for which the “Helicon in cells ± SD (%)” value in series [1] amounted to 15.5 ± 0.9%. Besides, the “CellTiter-Glo fold change ± SD” value in series [2] is listed as 1.3 ± 0.12.

On to `CCCC[C@H](NC(=O)[C@H](Cc1ccc(O)cc1)NC(=O)[C@H](CCC(N)=O)NC(=O)[C@]1(C)CCCC=CCCCCCC[C@@](C)(NC(=O)[C@H](CCC(=O)O)NC(=O)[C@H](CC(C)C)NC(=O)[C@@H](NC(C)=O)[C@@H](C)CC)C(=O)N[C@@H](Cc2ccc(O)cc2)C(=O)N[C@@H](CCC(=O)O)C(=O)N[C@@H](C)C(=O)N[C@@H](C)C(=O)N[C@@H](Cc2ccccc2)C(=O)N[C@@H](CCC(=O)O)C(=O)N1)C(N)=O` [FP08017] (Ac-ILE[R8]YEAAFE[S5]QY[Nle]-NH2; staple 4-11), for which, in series [1], the “Helicon in cells ± SD (%)” value amounted to 0.6 ± 0.1%. Moreover, in series [2], the “CellTiter-Glo fold change ± SD” value is given as 1.2 ± 0.01.

Take `CC(=O)N[C@@H](CC(C)C)C(=O)N[C@H](C(=O)N[C@@H](Cc1ccccc1)C(=O)N[C@]1(C)CCCCCCC=CCCC[C@@](C)(C(=O)N[C@@H](CO)C(=O)N[C@@H](C)C(=O)N[C@@H](C)C(N)=O)NC(=O)[C@H](CC2CCC2)NC(=O)[C@H](CCC(N)=O)NC(=O)[C@H](C)NC(=O)[C@H](Cc2c[nH]c3ccccc23)NC(=O)[C@H](Cc2ccc(O)cc2)NC(=O)[C@H](CCC(=O)O)NC1=O)[C@@H](C)O` [FP01413, reference compound]: in series [1], the “Helicon in cells ± SD (%)” value is 3.7 ± 0.4%. For the same compound, in series [2], the “CellTiter-Glo fold change ± SD” value is 1.2 ± 0.07.

As for `CCCC[C@H](NC(=O)[C@@H](NC(C)=O)C(C)C)C(=O)N[C@@H](CCC(N)=O)C(=O)N[C@]1(C)CCCCCCC=CCCC[C@@](C)(C(=O)N[C@@H](Cc2c[nH]cn2)C(=O)N[C@@H](Cc2ccc(O)cc2)C(=O)N[C@H](C(N)=O)C(C)C)NC(=O)[C@H]([C@@H](C)CC)NC(=O)[C@H](Cc2ccccc2)NC(=O)[C@H](C)NC(=O)[C@H](C)NC(=O)[C@H](CCC(N)=O)NC(=O)[C@H](Cc2ccc(O)cc2)NC1=O` [FP07871] (Ac-V[Nle]Q[R8]YQAAFI[S5]HYV-NH2; staple 4-11), the “Helicon in cells ± SD (%)” value in series [1] is 7.0 ± 0.3%. In series [2], the “CellTiter-Glo fold change ± SD” value is given as 1.2 ± 0.03.

`CCCC[C@H](NC(=O)[C@@H](NC(C)=O)C(C)C)C(=O)N[C@@H](CCC(N)=O)C(=O)N[C@]1(C)CCCCCCC=CCCC[C@@](C)(C(=O)N[C@@H](Cc2c[nH]cn2)C(=O)N[C@@H](Cc2ccc(O)cc2)C(=O)N[C@H](C(N)=O)C(C)C)NC(=O)[C@H]([C@@H](C)CC)NC(=O)[C@H](Cc2ccccc2)NC(=O)[C@H](C)NC(=O)[C@H](C)NC(=O)[C@H](CCC(=O)O)NC(=O)[C@H](Cc2ccc(O)cc2)NC1=O` [FP07864] (Ac-V[Nle]Q[R8]YEAAFI[S5]HYV-NH2; staple 4-11): in series [1], the “Helicon in cells ± SD (%)” value came to 18.5 ± 11.4%. Moreover, the “CellTiter-Glo fold change ± SD” value in series [2] was determined as 1.1 ± 0.05.

With `CCCC[C@H](NC(=O)[C@@H](NC(C)=O)[C@@H](C)CC)C(=O)N[C@@H](C)C(=O)N[C@]1(C)CCCCCCC=CCCC[C@@](C)(C(=O)N[C@@H](CCC(N)=O)C(=O)N[C@@H](Cc2ccc(O)cc2)C(=O)N[C@@H](CC(N)=O)C(N)=O)NC(=O)[C@H](Cc2c[nH]c3ccccc23)NC(=O)[C@H](Cc2ccccc2)NC(=O)[C@H](C)NC(=O)[C@H](C)NC(=O)[C@H](CCC(N)=O)NC(=O)[C@H](Cc2ccc(O)cc2)NC1=O` [FP08024] (Ac-I[Nle]A[R8]YQAAFW[S5]QYN-NH2; staple 4-11), in series [1], the “Helicon in cells ± SD (%)” value is 6.5 ± 0.5%. Moreover, the “CellTiter-Glo fold change ± SD” value in series [2] came to 1.2 ± 0.00.
